Reference: US6462021B1, “Use of low molecular weight thrombin inhibitor” (AstraZeneca AB, priority 2000, dated 2002)

How the values were obtained:
patients with NVAF [1] = assay: Clinical dose-guiding study: stroke/TIA events; assay type: in vivo, human
Method: (§1) The tolerability of three different doses of X (20, 40, 60 mg p.o. b.i.d.) was compared with warfarin (aiming for an international normalisation ratio (INR) of 2 to 3) over 3 months' treatment in NVAF patients with moderately to high increased risk for stroke or systemic embolic events.
(§2) This was a multicentre, multinational, randomized, parallel group, dose-guiding study to compare the safety and tolerabilty of X with warfarin in stroke prophylaxis in patients with NVAF.
(§3) Patients were split into four groups: one group receiving 20 mg of X b.i.d, one given 40 (2×20) mg of X b.i.d, and one 60 (3×20) mg of X b.i.d. The fourth group received warfarin (open label, INR aiming for 2.0 to 3.0). All X medication was given double blind (i.e. neither doctor nor patient knew what tablet strength of X was given).
(§4) The duration of treatment was 12 weeks. […] The 40 mg b.i.d. dose was later reduced to 36 mg b.i.d. of X.

patients with NVAF [2] = assay: Ongoing open label follow-up trials, 1 year on; assay type: in vivo
Source text: The duration of treatment was 12 weeks.

patients with NVAF [3] = assay: Clinical dose-guiding study: safety and tolerability (discontinuations, bleeding, adverse events)
Method: as §1, §2, §3, §4

patients with NVAF [4] = assay: Clinical dose-guiding study: warfarin management (INR by visit); assay type: in vivo, human
[5] = NVAF patients, 20, 40, 60 mg p.o. b.i.d.
Method: as §1, §3

[6] = warfarin group, 40 treatment years
[7] = X group, at 60 mg b.i.d., 12 weeks
[8] = X 36 mg b.i.d., 120 treatment years
[9] = X Dose 140 mg (so in the source) b.i.d., 12 weeks

CC(=O)CC(c1ccccc1)c1c(O)c2ccccc2oc1=O (centres unmarked) [Warfarin, warfarin]
TIAs reported (patients with NVAF [1]; warfarin group, 12 weeks): two | Stroke/TIA event of individual patient (patients with NVAF [1]; warfarin group, 12 weeks, one line per patient (Pat. 120, 153)): TIA | TIAs (patients with NVAF [2]; [6]): 2 | fatal strokes (patients with NVAF [2]; [6]): 2 | major life-threatening bleeds (patients with NVAF [2]; [6]): 3 | Bleeding Events, category Major (patients with NVAF [3]; warfarin group, 12 weeks): 1 | Bleeding Events, category Minor (patients with NVAF [3]; warfarin group, 12 weeks): 2 | Bleeding Events, category Multiple Minor (patients with NVAF [3]; warfarin group, 12 weeks): 1 | Bleeding Events, category None (patients) (patients with NVAF [3]; warfarin group, 12 weeks): 60 | Bleeding Events, category Unspecified (patients with NVAF [3]; warfarin group, 12 weeks): 3 | Number of Patients discontinued, reason Adverse Event (patients with NVAF [3]; warfarin group, 12 weeks): 4 | Number of Patients discontinued, reason Calc. CrCl < 40 mL/min (patients with NVAF [3]; warfarin group, 12 weeks): 5 | Number of Patients discontinued, reason Other (patients with NVAF [3]; warfarin group, 12 weeks): 3 | Number of Patients discontinued, reason Withdrawn Consent (patients with NVAF [3]; warfarin group, 12 weeks): 1 | Number of Patients, Total Discontinued (patients with NVAF [3]; warfarin group, 12 weeks): 13 | Bleeding Events, category Major (patients with NVAF [3]; warfarin group, 12 weeks, listed as warfarin): only major bleed (genital tract) and one | Prematurely discont. (percent of patients) (patients with NVAF [3]; warfarin, INR aim 2.0-3.0, 12 weeks): (19%) | Prematurely discont. (number of patients) (patients with NVAF [3]; warfarin, INR aim 2.0-3.0, 12 weeks, 67 randomised): 13 | Patients in INR Range 1.0-1.9 (number) (patients with NVAF [4]; Visit 1, Week 0, N 62): 34 | Patients in INR Range 1.0-1.9 (percent) (patients with NVAF [4]; Visit 1, Week 0, N 62): 55% | Patients in INR Range 2.0-3.0 (number) (patients with NVAF [4]; Visit 1, Week 0, N 62): 21 | Patients in INR Range 2.0-3.0 (percent) (patients with NVAF [4]; Visit 1, Week 0, N 62): 34% | Patients in INR Range >3.0 (number) (patients with NVAF [4]; Visit 1, Week 0, N 62): 7 | Patients in INR Range >3.0 (percent) (patients with NVAF [4]; Visit 1, Week 0, N 62): 11% | Patients in INR Range 1.0-1.9 (number) (patients with NVAF [4]; Visit 3, Week 1, N 59): 22 | Patients in INR Range 1.0-1.9 (percent) (patients with NVAF [4]; Visit 3, Week 1, N 59): 37% | Patients in INR Range 2.0-3.0 (number) (patients with NVAF [4]; Visit 3, Week 1, N 59): 25 | Patients in INR Range 2.0-3.0 (percent) (patients with NVAF [4]; Visit 3, Week 1, N 59): 42% | Patients in INR Range >3.0 (number) (patients with NVAF [4]; Visit 3, Week 1, N 59): 12 | Patients in INR Range >3.0 (percent) (patients with NVAF [4]; Visit 3, Week 1, N 59): 20% | Patients in INR Range 1.0-1.9 (number) (patients with NVAF [4]; Visit 4, Week 2, N 54): 15 | Patients in INR Range 1.0-1.9 (percent) (patients with NVAF [4]; Visit 4, Week 2, N 54): 28% | Patients in INR Range 2.0-3.0 (number) (patients with NVAF [4]; Visit 4, Week 2, N 54): 26 | Patients in INR Range 2.0-3.0 (percent) (patients with NVAF [4]; Visit 4, Week 2, N 54): 48% | Patients in INR Range >3.0 (number) (patients with NVAF [4]; Visit 4, Week 2, N 54): 13 | Patients in INR Range >3.0 (percent) (patients with NVAF [4]; Visit 4, Week 2, N 54): 24% | Patients in INR Range 1.0-1.9 (number) (patients with NVAF [4]; Visit 5, Week 4, N 51): 17 | Patients in INR Range 1.0-1.9 (percent) (patients with NVAF [4]; Visit 5, Week 4, N 51): 33% | Patients in INR Range 2.0-3.0 (number) (patients with NVAF [4]; Visit 5, Week 4, N 51): 22 | Patients in INR Range 2.0-3.0 (percent) (patients with NVAF [4]; Visit 5, Week 4, N 51): 43% | Patients in INR Range >3.0 (number) (patients with NVAF [4]; Visit 5, Week 4, N 51): 12 | Patients in INR Range >3.0 (percent) (patients with NVAF [4]; Visit 5, Week 4, N 51): 24% | Patients in INR Range 1.0-1.9 (number) (patients with NVAF [4]; Visit 6, Week 8, N 49): 15 | Patients in INR Range 1.0-1.9 (percent) (patients with NVAF [4]; Visit 6, Week 8, N 49): 31% | Patients in INR Range 2.0-3.0 (number) (patients with NVAF [4]; Visit 6, Week 8, N 49): 25 | Patients in INR Range 2.0-3.0 (percent) (patients with NVAF [4]; Visit 6, Week 8, N 49): 51% | Patients in INR Range >3.0 (number) (patients with NVAF [4]; Visit 6, Week 8, N 49): 9 | Patients in INR Range >3.0 (percent) (patients with NVAF [4]; Visit 6, Week 8, N 49): 18% | Patients in INR Range 1.0-1.9 (number) (patients with NVAF [4]; Visit 7, Week 12, N 58): 18 | Patients in INR Range 1.0-1.9 (percent) (patients with NVAF [4]; Visit 7, Week 12, N 58): 31% | Patients in INR Range 2.0-3.0 (number) (patients with NVAF [4]; Visit 7, Week 12, N 58): 33 | Patients in INR Range 2.0-3.0 (percent) (patients with NVAF [4]; Visit 7, Week 12, N 58): 57% | Patients in INR Range >3.0 (number) (patients with NVAF [4]; Visit 7, Week 12, N 58): 7 | Patients in INR Range >3.0 (percent) (patients with NVAF [4]; Visit 7, Week 12, N 58): 12%

CCOC(=O)CN[C@@H](C(=O)N1CC[C@H]1C(=O)NCc1ccc(/C(N)=N\O)cc1)C1CCCCC1 [X, EtO2C—CH2-(R)Cgl-Aze-Pab-OH]
pharmacokinetics, dose dependence [5]: dose proportional | Stroke/TIA event of individual patient (patients with NVAF [1]; X 60 mg b.i.d. group, 12 weeks, one line per patient (Pat. 121, 309)): Ischemic stroke and TIA | stroke rate (patients with NVAF [1]; X group, all doses combined, estimated 40 patient years of observation): 2.5% | TIA reported (patients with NVAF [1]; [7]): one | ischemic stroke reported (patients with NVAF [1]; [7]): one | TIAs (patients with NVAF [2]; [8]): 2 | major bleeds (patients with NVAF [2]; [8]): no major bleeds | non-fatal strokes (patients with NVAF [2]; [8]): 2 | Prematurely discont. (percent of patients) (patients with NVAF [3]; X 20 mg p.o. b.i.d., 12 weeks): (15%) | Prematurely discont. (number of patients) (patients with NVAF [3]; X 20 mg p.o. b.i.d., 12 weeks, 66 randomised): 10 | Prematurely discont. (percent of patients) (patients with NVAF [3]; X 40 mg p.o. b.i.d., 12 weeks): (19%) | Prematurely discont. (number of patients) (patients with NVAF [3]; X 40 mg p.o. b.i.d., 12 weeks, 64 randomised): 12 | onset pattern of bleeding (patients with NVAF [3]; X 60 mg b.i.d., similar pattern to warfarin): occurs early in the treatment period | Prematurely discont. (percent of patients) (patients with NVAF [3]; X 60 mg p.o. b.i.d., 12 weeks): (20%) | Prematurely discont. (number of patients) (patients with NVAF [3]; X 60 mg p.o. b.i.d., 12 weeks, 60 randomised): 12 | Bleeding Events, category Major (patients with NVAF [3]; X Dose 20 mg b.i.d., 12 weeks): 0 | Bleeding Events, category Minor (patients with NVAF [3]; X Dose 20 mg b.i.d., 12 weeks): 1 | Bleeding Events, category Multiple Minor (patients with NVAF [3]; X Dose 20 mg b.i.d., 12 weeks): 2 | Bleeding Events, category None (patients) (patients with NVAF [3]; X Dose 20 mg b.i.d., 12 weeks): 61 | Bleeding Events, category Unspecified (patients with NVAF [3]; X Dose 20 mg b.i.d., 12 weeks): 2 | Number of Patients discontinued, reason Adverse Event (patients with NVAF [3]; X Dose 20 mg b.i.d., 12 weeks): 6 | Number of Patients discontinued, reason Calc. CrCl < 40 mL/min (patients with NVAF [3]; X Dose 20 mg b.i.d., 12 weeks): 4 | Number of Patients discontinued, reason Other (patients with NVAF [3]; X Dose 20 mg b.i.d., 12 weeks): 0 | Number of Patients, Total Discontinued (patients with NVAF [3]; X Dose 20 mg b.i.d., 12 weeks): 10 | Bleeding Events, category Major (patients with NVAF [3]; X Dose 40 mg b.i.d., 12 weeks): 0 | Bleeding Events, category Minor (patients with NVAF [3]; X Dose 40 mg b.i.d., 12 weeks): 0 | Bleeding Events, category Multiple Minor (patients with NVAF [3]; X Dose 40 mg b.i.d., 12 weeks): 3 | Bleeding Events, category None (patients) (patients with NVAF [3]; X Dose 40 mg b.i.d., 12 weeks): 57 | Bleeding Events, category Unspecified (patients with NVAF [3]; X Dose 40 mg b.i.d., 12 weeks): 2 | Bleeding Events, category Major (patients with NVAF [3]; X Dose 60 mg b.i.d., 12 weeks): 0 | Bleeding Events, category Minor (patients with NVAF [3]; X Dose 60 mg b.i.d., 12 weeks): 3 | Bleeding Events, category Multiple Minor (patients with NVAF [3]; X Dose 60 mg b.i.d., 12 weeks): 0 | Bleeding Events, category None (patients) (patients with NVAF [3]; X Dose 60 mg b.i.d., 12 weeks): 52 | Bleeding Events, category Unspecified (patients with NVAF [3]; X Dose 60 mg b.i.d., 12 weeks): 4 | Number of Patients discontinued, reason Adverse Event (patients with NVAF [3]; X Dose 60 mg b.i.d., 12 weeks): 5 | Number of Patients discontinued, reason Calc. CrCl < 40 mL/min (patients with NVAF [3]; X Dose 60 mg b.i.d., 12 weeks): 4 | Number of Patients discontinued, reason Other (patients with NVAF [3]; X Dose 60 mg b.i.d., 12 weeks): 1 | Number of Patients, Total Discontinued (patients with NVAF [3]; X Dose 60 mg b.i.d., 12 weeks): 12 | Number of Patients discontinued, reason Adverse Event (patients with NVAF [3]; [9]): 3 | Number of Patients discontinued, reason Calc. CrCl < 40 mL/min (patients with NVAF [3]; [9]): 5 | Number of Patients discontinued, reason Other (patients with NVAF [3]; [9]): 1 | Number of Patients, Total Discontinued (patients with NVAF [3]; [9]): 12 | liver enzyme levels (patients with NVAF [3]; a few patients treated with X): asymptomatic increases | tolerability (patients with NVAF [3]; doses of up to 60 mg b.i.d. over 3 months): well tolerated
